ChEMBL document CHEMBL1151989, “Antineoplastic agents. 578. Synthesis of stilstatins 1 and 2 and their water-soluble prodrugs” (J Nat Prod, 2009)
Values after ≈ are worked out from the molar mass of the structure shown.

Key:
[1] = tested on: BXPC-3; assay: Antitumor activity against human BxPC3 cells by sulforhodamine B assay; type: functional
[2] = tested on: MCF7; assay: Antitumor activity against human MCF7 cells by sulforhodamine B assay; type: functional
[3] = tested on: SF-268; assay: Antitumor activity against human SF268 cells by sulforhodamine B assay; type: functional
[4] = tested on: NCI-H460; assay: Antitumor activity against human NCI-H460 cells by sulforhodamine B assay; type: functional
[5] = tested on: KM-20L2; assay: Antitumor activity against human KM20L2 cells by sulforhodamine B assay; type: functional
[6] = tested on: DU-145; assay: Antitumor activity against human DU145 cells by sulforhodamine B assay; type: functional
[7] = tested on: P388; assay: In vitro growth inhibition against mouse P388 cells
[8] = (§1) Antitumor activity against human KAT4 cells by sulforhodamine B assay; type: functional; conditions: KAT-4
[9] = tested on: SW-1736; assay: Antitumor activity against human SW1736 cells by sulforhodamine B assay; type: functional
[10] = Aqueous solubility of compound in water; type: physicochemical
[11] = tested on: KAT-4; assay: as §1; type: functional

Compound	GI50 [1] [µg/mL]	GI50 [2] [µg/mL]	GI50 [3] [µg/mL]	GI50 [4] [µg/mL]	GI50 [5] [µg/mL]	GI50 [6] [µg/mL]	ED50 [7] [µg/mL]	GI50 [8] [µg/mL]	GI50 [9] [µg/mL]	solubility [10] [mg/mL]	GI50 [11] [µg/mL]
COc1cc(/C=C\c2ccc(OC)c(O[Si](C)(C)C(C)(C)C)c2O[Si](C)(C)C(C)(C)C)cc(O[Si](C)(C)C(C)(C)C)c1OC	> 10	> 10	> 10	> 10	> 10	> 10	>100				
COc1cc(/C=C\c2ccc(OC)c(OP(=O)([O-])[O-])c2OP(=O)([O-])[O-])cc2c1OCO2.[Li+].[Li+].[Li+].[Li+]	> 10	1.2	2.4	2.7	> 10	2.1	0.3				
COc1ccc(/C=C\c2cc(OC)c(OC)c(OC)c2)cc1O [COMBRETASTATIN A4]	0.39 (≈ 1.23 µM)			0.0006 (≈ 0.0019 µM)	0.34 (≈ 1.07 µM)	0.0008 (≈ 0.00253 µM)	0.0009 (≈ 0.00284 µM)				
COc1cc(/C=C\c2ccc(OC)c(OP(=O)([O-])[O-])c2OP(=O)([O-])[O-])cc(OP(=O)([O-])[O-])c1OC.[Zn+2].[Zn+2].[Zn+2]	> 10	3.5	4.5	3.5	> 10	4.6	0.15	> 10	1.3		
COc1cc(/C=C\c2ccc(OC)c(OP(=O)([O-])[O-])c2OP(=O)([O-])[O-])cc(OP(=O)([O-])[O-])c1OC.[Ca+2].[Ca+2].[Ca+2]	3.6	0.38	0.46	0.35	5.2	0.37	0.14				
COc1cc(/C=C\c2ccc(OC)c(O[Si](C)(C)C(C)(C)C)c2O[Si](C)(C)C(C)(C)C)cc2c1OCO2	> 10	> 10	> 10	> 10	> 10	> 10	>10				
COc1ccc(/C=C\c2cc(O)c(OC)c(OC)c2)c(O)c1O [STILSTATIN 2]	1.8 (≈ 5.65 µM)	1.6 (≈ 5.03 µM)	1.6 (≈ 5.03 µM)	1.5 (≈ 4.71 µM)	1.9 (≈ 5.97 µM)	1.8 (≈ 5.65 µM)	1.7 (≈ 5.34 µM)				
COc1ccc(/C=C\c2cc(OC)c(OC)c(OC)c2)cc1OP(=O)([O-])[O-].[Na+].[Na+] [FOSBRETABULIN DISODIUM]	0.23			0.0004		0.0007	0.0029			20	
COc1cc(/C=C\c2ccc(OC)c(OP(=O)([O-])[O-])c2OP(=O)([O-])[O-])cc2c1OCO2.[Na+].[Na+].[Na+].[Na+]	> 10	3.4	2.8	2.8	> 10	2.5	1.4				
COc1ccc(/C=C\c2cc(OC)c3c(c2)OCO3)cc1O [Combretastatin A-2]	0.014 (≈ 0.0466 µM)	0.0042 (≈ 0.014 µM)		0.043 (≈ 0.143 µM)	0.47 (≈ 1.57 µM)	0.0054 (≈ 0.018 µM)	0.016 (≈ 0.0533 µM)				
COc1cc(/C=C\c2ccc(OC)c(OP(=O)([O-])[O-])c2OP(=O)([O-])[O-])cc2c1OCO2.[K+].[K+].[K+].[K+]	5.3	0.39	0.65	1.4	> 10	0.93	0.17	9.6	> 10		
COc1ccc(/C=C\c2cc(OC)c3c(c2)OCO3)cc1OP(=O)([O-])[O-].[Na+].[Na+]	2.1	0.045		0.41	3.8	0.053	0.025				
COc1cc(/C=C\c2ccc(OC)c(OP(=O)([O-])[O-])c2OP(=O)([O-])[O-])cc(OP(=O)([O-])[O-])c1OC.[Rb+].[Rb+].[Rb+].[Rb+].[Rb+].[Rb+]	> 10	3.9	4.3	3.3	> 10	3.9	0.26				
COc1cc(/C=C\c2ccc(OC)c(OP(=O)([O-])[O-])c2OP(=O)([O-])[O-])cc(OP(=O)([O-])[O-])c1OC.[K+].[K+].[K+].[K+].[K+].[K+]	0.75	0.15	0.3	0.3	2.9	0.22	0.12				
COc1cc(/C=C\c2ccc(OC)c(OP(=O)([O-])[O-])c2OP(=O)([O-])[O-])cc(OP(=O)([O-])[O-])c1OC.[Na+].[Na+].[Na+].[Na+].[Na+].[Na+]	1.2	0.3	0.34	0.3	3.1	0.26	0.14				
COc1cc(/C=C\c2ccc(OC)c(OP(=O)([O-])[O-])c2OP(=O)([O-])[O-])cc(OP(=O)([O-])[O-])c1OC.[Li+].[Li+].[Li+].[Li+].[Li+].[Li+]	5.8	0.36	0.76	0.35	6.1	0.82	0.028				
COc1cc(/C=C\c2ccc(OC)c(OP(=O)([O-])[O-])c2OP(=O)([O-])[O-])cc(OC)c1OC.[Na+].[Na+].[Na+].[Na+]	> 10			3.3	> 10	2.7	0.3				
Manganese Stilstatin 2 2',3,3'-O-Triphosphate	> 10	> 10	3.6	0.51	> 10	> 10			1.7		> 10
COc1cc(/C=C\c2ccc(OC)c(OP(=O)([O-])[O-])c2OP(=O)([O-])[O-])cc(OP(=O)([O-])[O-])c1OC.[Mg+2].[Mg+2].[Mg+2]	5.9	0.5	0.63	0.32	< 10	0.42	0.064	4.7	> 10		
COc1ccc(/C=C\c2cc(OC)c(OC)c(OC)c2)c(O)c1O [COMBRETASTATIN A-1]	4.4 (≈ 13.2 µM)			0.74 (≈ 2.23 µM)		0.17 (≈ 0.512 µM)	0.3 (≈ 0.903 µM)				
